These results are taken from patent US20250161282A1, “PHARMACEUTICAL PYRIDYL COMPOSITIONS FOR TREATING AND PREVENTING DELAYED GRAFT FUNCTION” (Unicycive Therapeutics, Inc., priority 2023, published 2025).

Structures can show the parent of a compound that is named as a salt. Where two headings read alike, the source gives them in different places.

In data set [1] the test system is rat bilateral ischemia/reperfusion (IR) model. As to the kind of experiment: rat bilateral ischemia/reperfusion (IR) model, oral Compound 8 (iodide salt). The conditions noted are these: for urine β2-MG levels and content compared with Group 2 (IR): iodide salt. The data set is classed as in vivo, male Sprague Dawley rats. The text has this: Animal models of IRI (ischemia reperfusion injury), DGF (delayed graft function), and AKI (acute kidney injury) mimic many features seen in human kidney allografts. […] In 2011, the FDA held a workshop to review the current state of knowledge related to the effects of IRI on outcomes in kidney transplantation in animal models. The FDA stated animal models have implicated maladaptive host responses to […]. The maladaptive responses are changes in hemodynamics, decrease in oxygen tension, mitochondrial dysfunction, tubular injury, inflammation, etc.
In the rat bilateral IR model, the bilateral renal pedicle was clamped for 45 min for ischemia and then the clamp is removed to allow reperfusion. […] Urine β2-MG levels and content of Group 2 were higher than those in Group 1. Compared with Group 2, Groups 3 and 4 had lower urine β2-MG levels and content (n=10/group) (FIG. 1; […] at 10 mg/kg dose and p<0.01 at 20 mg/kg dose—as per one-way ANOVA multiple comparison test).

The nature of data set [2]: Phase I study Part 2, multiple ascending doses (MAD), BID oral fasted. It is filed as in vivo, human. The conditions noted are these: for dose-proportionality of exposure from 40 mg to 80 mg (Cmax and AUC(0-tau)): Day 1, analyte = labelled substance; for Tmax at 5 days: read-out: median Tmax. The text has this: Part 2 of the study was a double-blind, randomized, placebo-controlled, MAD study.

A short description of the next data set: clinical. The conditions noted are these: both, human, plasma, oral.
Data set [3] can be described thus: Phase I study Part 1, single ascending doses (SAD), oral fasted.
Description: (§1) In this Phase I study, the safety and tolerability of single ascending doses (SAD) of Compound 8 was administered to male and female subjects. The study was a single centre, double-blinded, placebo-controlled, randomized single ascending doses (SAD) and multiple ascending doses (MAD) study in healthy male and female subjects of non-childbearing potential.
(§2) Part 1 was a double-blinded, randomized, placebo-controlled, SAD study, including approximately 32 subjects in 4 cohorts of 8 subjects each (randomized to a ratio of 6 active and 2 placebo per cohort). The subjects received the regimens presented in Table A. The route of administration was oral and fasted.
(§3) Subjects received a single dose of Compound 8 Capsule or placebo in the morning following an overnight fast. For Regimen E, Period 2, cohort SAD 3 were readmitted to the clinical unit. There was a minimum 7-day washout between dosing occasions for Regimen C and Regimen E. Blood samples were collected at regular intervals for safety and PK analysis from Day −1 to discharge from the clinical unit.
(§4) In Part 1 of the study, subjects received a single oral doses of Compound 8 Capsule or placebo on one occasion in the fasted state, except for subjects in Cohort SAD 3 who received two single doses on two separate occasions. Doses ranged from 10 mg to 160 mg. In Part 2 of the study, subjects received single doses of Compound 8 Capsule or placebo BID for 4 consecutive days and once on Day 5 in the fasted state. Doses ranged from 40 mg to 80 mg.
Data set [4] concerns unilateral IR model of AKI in rats. As to the kind of experiment: unilateral IR model of AKI in rats (kidney functional markers, tubular injury). The data set is classed as in vivo, male SD (Sprague Dawley) rats. The conditions noted are these: for BUN vs IR vehicle: p<0.0001 (FIG. 4); for serum creatinine: p<0.0001 (FIG. 9A). Here is the method:
A total of […] male SD (Sprague Dawley) rats were divided into 10 groups each with 10 rats/group as detailed in the Table 3. The ischemia was induced in the left kidney using a small clamp (Sugita standard aneurysm clip holding force 145 g) that was placed on the renal vascular pedicle for 30 min for all groups except SHAM group.
All rats were housed in metabolic cages for the collection of 24-hour urine samples for ACR, NGAL and β2-MG levels. After 24 hours, rats were anaesthetized, and blood samples were collected for sCre, and BUN levels. The left kidney was collected and processed for histology for tubular injury scores.
A total of additional 10 male SD (Sprague Dawley) rats were used along with the Group 1 (No IR) and Group 2 (IR); and other Groups listed in the Tabel 3; and conducted the study. The ischemia was induced in the left kidney of those additional 10 rats using a small clamp (Sugita standard aneurysm clip holding force 145 g) that was placed on the renal vascular pedicle for 30 min.
Nicorandil at 10 mg/kg, was administered 30 minutes prior to the induction of ischemia via intraperitoneal (ip) administration to the additional 10 rats along with the groups listed in Table 3. All additional 10 rats were housed in metabolic cages for the collection of 24-hour urine samples for ACR. After 24 hours, rats were anaesthetized, and blood samples were collected for sCre. The left kidney was collected and processed for histology for tubular injury scores along with the other groups as detailed in Table 3.

For data set [5] the following is noted: nicorandil 10 mg; cited from earlier work.
Data set [6] relates to contrast induced nephropathy. The conditions noted are these: 10 mg BID dosing; cited from earlier work.

Description for clinical: as §1, §2, §3, §4

As for `CC(NC(=O)OC[n+]1cccc(C(=O)NCCO[N+](=O)[O-])c1)C1CCCCC1` (stereo in doubt) [Compound 8, (S)-1-(((1-cyclohexylethylcarbamoyl)oxy)methyl)-3-((2-(nitroxy)ethyl)carbamoyl)pyridine-1-ium iodide], in data set [1] (10 and 20 mg/kg oral), the “physical or behavioral abnormalities vs vehicle” value is listed as “no physical or behavioral abnormalities”, the “significant changes in body weight vs vehicle” value was “no”, the uACR vs vehicle result is listed as “no significant difference” and the “urine albumin concentration or total amount vs vehicle” value is listed as “no significant difference”. Also, the “urine creatinine concentration or total amount vs vehicle” value in data set [1] (10 and 20 mg/kg oral) is listed as “no significant difference”. In data set [1] (doses up to 20 mg/kg oral), the “creatinine marker of kidney function” value is given as “did not appear to have a significant impact” and the “histological markers of kidney function (histological scores for tubular injury)” value is listed as “did not appear to have a significant impact”. For the same compound, the “urine β2-MG levels and content compared with Group 2 (IR)” value in data set [1] (10 mg/kg oral 1 hour prior to ischemia, p<0.5 (FIG. 1)) is recorded as “lower”. Further, in data set [1] (20 mg/kg oral 1 hour prior to ischemia, p<0.01 (FIG. 1)), the “urine β2-MG levels and content compared with Group 2 (IR)” value was “lower”. Moreover, the “dose-proportionality of exposure from 40 mg to 80 mg (Cmax and AUC(0-tau))” value in data set [2] is given as “approximate proportional increase”. The half-life at 5 day in data set [2] (both sexes, human, plasma, oral, Day 5, both doses, reliable in 3 out of the 10 profiles, read-out: individual plasma half-life) fell in the range of 1.11 to 1.42 h. For the same compound, in data set [2] (both sexes, human, plasma, multiple oral doses 40 mg for 5 days), the Tmax at 5 days was 1.5 h. Besides, the Tmax at 5 days in data set [2] (both sexes, human, plasma, multiple oral doses 80 mg for 5 days) was determined as 1 h. Further, in “clinical”, the Tmax is 0.5 to 1.5 h and the half-life was 0.74 to 2.58 h. For the same compound, in the data set “clinical” (10 mg), the AUC(0-t) was more than 0.127 ng·h/mL and the Cmax is more than 1.01 ng/mL. Besides, in data set [3] (10 mg to 160 mg dose range), the “dose proportionality of peak and overall exposure (Cmax, AUC(0-last))” value was “sub-proportional increase”.
Take `C[C@@H](NC(=O)OC[n+]1cccc(C(=O)NCCO[N+](=O)[O-])c1)C1CCCCC1` [Compound 8, nitrate salt]: the “serum creatinine vs IR vehicle” value in data set [4] (5 mg/kg/iv single dose 30 min prior to ischemia, p<0.0001 (FIG. 2C)) is recorded as “phenomenally reduced”; in data set [4] (10 mg/kg/iv single dose 30 min prior to ischemia, p<0.0001 (FIG. 2C)) it was “phenomenally reduced”; in data set [4] (50 mg/kg/ip single dose 30 min prior to ischemia, p<0.05 (FIG. 2B)), “significantly reduced”; in data set [4] (100 mg/kg/po single dose 30 min prior to ischemia, p<0.05 (FIG. 2A)) it was “significantly reduced”. Further, the “BUN vs IR vehicle” value in data set [4] (5 mg/kg/iv single dose 30 min prior to ischemia) and in data set [4] (10 mg/kg/iv single dose 30 min prior to ischemia) was “phenomenally reduced” in each case. The “urinary ACR vs IR vehicle” value is “phenomenally reduced” in data set [4] (5 mg/kg/iv single dose 30 min prior to ischemia, p<0.001 (FIG. 3C)); “phenomenally reduced” in data set [4] (10 mg/kg/iv single dose 30 min prior to ischemia, p<0.001 (FIG. 3C)); “significantly reduced” in data set [4] (25 mg/kg/ip single dose 30 min prior to ischemia, p<0.01 (FIG. 3B)); “significantly reduced” in data set [4] (50 mg/kg/ip single dose 30 min prior to ischemia, p<0.001 (FIG. 3B)); “significantly reduced” in data set [4] (50 mg/kg/po single dose 30 min prior to ischemia, p<0.01 (FIG. 3A)); “significantly reduced” in data set [4] (100 mg/kg/po single dose 30 min prior to ischemia, p<0.001 (FIG. 3A)). For the same compound, the “proximal convoluted tubular injury scores” value in data set [4] (intraperitoneal high dose 50 mg/kg, preventive, p<0.0001 (FIG. 6B)) is “effective in lowering”; in data set [4] (intravenous high dose 10 mg/kg, preventive, p<0.0001 (FIG. 6C)) it was “robustly effective in lowering”; in data set [4] (intravenous low dose 5 mg/kg, preventive, p<0.0001 (FIG. 6C)), “robustly effective in lowering”. In data set [4] (intraperitoneal low dose 25 mg/kg, preventive, p<0.01 (FIG. 8)), the “tubular injury marker β2-MG (urinary)” value is given as “effective in lowering”. The “tubular injury/damage, histological images” value in data set [4] (intraperitoneal route (FIG. 7D)) and in data set [4] (oral route (FIG. 7C)) was “moderately ameliorated” in each case. The “tubular injury marker NGAL (urinary)” value is “robustly effective in lowering” in data set [4] (intravenous high dose 10 mg/kg, preventive, p<0.0001 (FIG. 5B)); “robustly effective in lowering” in data set [4] (intravenous low dose 5 mg/kg, preventive, p<0.0001 (FIG. 5B)); “effective in lowering” in data set [4] (oral high dose 100 mg/kg, preventive, p<0.0001 (FIG. 5A)); “effective in lowering” in data set [4] (oral low dose 50 mg/kg, preventive, p<0.0001 (FIG. 5A)). Moreover, the “tubular injury/damage, histology” value in data set [4] (intravenous route, low and high doses (FIG. 6C, 7E)) is listed as “markedly ameliorated”. Moreover, the “proximal convoluted tubular injury scores/damage” value in data set [4] (oral high dose 100 mg/kg, preventive, p<0.0001 (FIG. 6A)) is recorded as “effective in lowering”. Moreover, the BUN result in data set [4] (therapeutic regimen, 10 mg/kg/iv at 1 hour, p<0.001 (FIG. 9B)) is given as “phenomenally reduced”; in data set [4] (therapeutic regimen, 10 mg/kg/iv at 4 hours, p<0.0001 (FIG. 9B)) it was “phenomenally reduced”. For the same compound, the “urinary NGAL” value in data set [4] (therapeutic regimen, 10 mg/kg/iv at 4 hours, p<0.01 (FIG. 9C)) is on record as “phenomenally reduced”. Also, the serum creatinine result in data set [4] (therapeutic regimen, 10 mg/kg/iv single dose at 1 hour after ischemia) is given as “phenomenally reduced”; in data set [4] (therapeutic regimen, 10 mg/kg/iv single dose at 4 hours after ischemia) it was “phenomenally reduced”.
For the compound `CC(N)C1CCCCC1` (stereo not shown) [1-cyclohexylethylamine], the “subjects with quantifiable concentrations” value in data set [2] (multiple oral dosing 40 mg or 80 mg Compound 8 for 5 days), in data set [2] (single dosing of Compound 8 Capsule 80 mg) and in data set [3] (after Compound 8 160 mg) was “all subjects” in each case. Further, in data set [3] (after Compound 8 10 mg, 20 mg and 40 mg dose levels), the PK profiles result is on record as “entirely BLQ”.
For `O=C(NCCO[N+](=O)[O-])c1cccnc1` [Nicorandil, reference compound], the “proximal tubules, histological images” value in data set [4] (10 mg/kg ip (FIG. 10D)) is listed as “most all proximal tubules are healthy”. For the same compound, the “serum creatinine compared to Group 2” value in data set [4] (10 mg/kg ip single dose 30 min prior to ischemia, p<0.0001 (FIG. 10A)) is reported as “significantly reduced”. The “ACR compared to Group 2” value in data set [4] (10 mg/kg ip single dose 30 min prior to ischemia, p<0.0001 (FIG. 10B)) is “significantly reduced”. The “tubular injury/damage compared to Group 2” value in data set [4] (10 mg/kg ip single dose 30 min prior to ischemia, p<0.0001 (FIG. 10C)) was “significantly reduced”. For the same compound, the “dose-proportionality of exposure from 40 mg to 80 mg (Cmax and AUC(0-tau))” value in data set [2] is “proportional increase”. In data set [5], the AUC is on record as 101 (range of 122-323) hour·ng/m, the Cmax is on record as 107 (range of 44-148) ng/mL and the Tmax is reported as 0.43 (range 0.25-0.75) hours. Besides, in data set [6], the “activity in contrast induced nephropathy” value is given as “show activity”. Moreover, the “dose proportionality of peak (20-160 mg) and total (40-160 mg) exposure” value in data set [3] (nicorandil after Compound 8, Cmax and AUC(0-last)) is “slightly greater than proportional”.
